Molecules are shown by their SMILES.

The subject of assay [1] is T1, PDE-1.
T1 construct: gene phosphodiesterase I; substrate bis(p-nitrophenyl) phosphate type, pH 8.8 and Mg acetate fit the usual snake venom phosphodiesterase I, not the docking model human PDE1B (5W6E)
The assay is described as follows: bis(p-nitrophenyl) substrate hydrolysis, […] nm. Format: biochemical. The settings on record: 0.33 mM bis(p-nitrophenyl) substrate, Mg acetate, Tris-HCl pH 8.8, 37 °C.

Assay [2] addresses T2, mushroom tyrosine [tyrosinase].
T2 construct: gene PPO1; docking model 1WX2 is another species (Streptomyces)
The assay is described as follows: L-DOPA oxidation, absorbance […] nm. Format: biochemical. The note with it: L-DOPA (printed L-DOP) substrate, phosphate buffer, 37 °C.

In general, IC50 refers to the concentration that gives 50% inhibition. Read a low IC50 as greater potency. For the compound `O=C(O)CN(CCN(CC(=O)O)CC(=O)O)CC(=O)O` [EDTA], the IC50 in assay [1] (chelator used as standard) was 264.1 ± 1.09 µM.
Take `CC1(C)C=Cc2c(cc3oc(-c4ccc(O)cc4)cc(=O)c3c2O)O1` [compound 1, carpachromene]: the IC50 in assay [1] amounted to 209.4 ± 1.87 µM; in assay [2] it was 40.5 ± 2 µM.
On to `O=c1cc(CO)occ1O` [Kojic acid], for which the concentration for half-maximal inhibition (IC50) in assay [2] worked out at 44 ± 1.1 µM.

The values are drawn from article PMC9794428, “Enzyme Inhibitory Activities of Extracts and Carpachromene from the Stem of Ficus benghalensis” (BioMed Research International, 2022).
